What was measured:
GLS1 = GLS1 (Homo sapiens (Human), UniProt O94925); assay: GLS Enzyme Potency Assay (Glutamate Oxidase/AmplexRed coupled assay); assay type: biochemical; details: 6His tagged GLS protein (amino acids 63-669), 60 minutes reaction with glutamine
Source text: (§1) The following assays were used to measure the effects of the compounds of the present invention: a) GLS Enzyme Potency Assay; b) GLS Cell Potency Assay; c) GLS Cell Proliferation Assay. During the description of the assays, generally: • i. The following abbreviations have been used: CO2=Carbon dioxide; DMEM=Dulbecco's Modified Eagle Medium; DMSO=Dimethyl sulphoxide; EDTA=Ethylenediaminetetraacetic acid; EGTA=Ethylene glycol tetraacetic acid; FCS=Foetal calf serum; h=Hour(s); NBS=Non-binding surface; SDS=Sodium dodecyl sulphate; TRIS=Tris(Hydroxymethyl)aminomethane. • ii. IC50 values were calculated using a smart fitting model in Genedata. The IC50 value was the concentration of test compound that inhibited 50% of biological activity. Assay a): GLS Enzyme Potency Assay
A Glutamate Oxidase/AmplexRed coupled assay was used to measure the ability of compounds to bind to and inhibit the activity of GLS1 in vitro. 6His tagged GLS protein (amino acids 63-669) expressed in E. Coli was purified and stored at −80° C. in aliquots. GLS1 was diluted to 2×working concentration and incubated at r.t. to allow the tetrameric/dimeric forms to reach steady state. Assay measurements were performed in buffer comprising 50 mM TRIS pH 7.8, 100 mM NaPO4, pH 7.8, 0.001% v/v Tween20. Purified recombinant GLS1 protein was diluted in assay buffer to 12 nM and pre-incubated at r.t. for 30 minutes. Test compounds were prepared by dilution in 100% DMSO to give the correct dose range for 12 point concentration response and an appropriate volume (2.5-60 nl) dispensed into 384 well micro assay plates (Greiner product code 784900) using a Labcyte Echo 555 acoustic dispenser. DMSO concentration was maintained at 2% by back filling with DMSO solution. 3 μL of diluted GLS1 protein (12 nM) was then dispensed into each well using a BioRaptr automated dispenser (Beckman-Coulter) and incubated for 15 minutes at r.t. 3 μl of 100 mM glutamine diluted in assay buffer was then added and the reaction incubated at r.t. for 60 minutes. The reaction was then stopped by addition of 45 μM 6-(2-bromoethynyl)-2,3-dimethyl-quinazolin-4-one, 75 μM Amplex Red, 0.375 units/mL Horseradish Peroxidase, 0.12 units/mL Glutamate Oxidase in 100 mM TRIS pH7.5. After 30 minutes at room temp in the dark, plates were read on a Perkin Elmer EnVision using 535/590 nm optic filters and raw data analysed using Genedata to generate IC50 values. An artefact version of the assay where the 6His tagged GLS protein and glutamine were replaced with assay buffer was also used to rule out non specific effects on the assay components.

[1] = system: cellular GLS activity in PC3 cells; assay: GLS Cell Potency Assay (PC3 coupled assay measuring cellular glutamate depletion); assay type: cell-based; details: Homo sapiens, PC-3; PC3 cells, 6 h incubation, cellular glutamate depletion; read-out: Assay b) GLS Cell Potency Assay IC50
Source text: as §1, with “The IC50 value was the concentration of test compound that inhibited 50% of biological activity.” left out
Compounds were assessed for their potential to inhibit cellular GLS activity by use of a PC3 coupled assay measuring cellular glutamate depletion. […] DMSO concentration was maintained at 0.3% by back filling with DMSO solution. PC3 cells were grown in phenol free DMEM, 10% dialyzed FCS, 2 mM glutamine and following dispersal by trypsinisation were plated at 5.6×10^3 cells per well in 40 μl of growth medium directly into the 384 well assay plates containing dispensed compound. After incubation for 6 h at 37° C., 5% CO2 growth media was aspirated and cells lysed in 15 μl of buffer containing 10 mM TRIS pH7.4, 100 mM NaCl, 1 mM EDTA, 1 mM EGTA, 1 mM NaF, 20 mM Na4P2O7, 2 mM Na3VO4, 1% Triton X-100, 10% glycerol, 0.1% SDS and 0.5% deoxycholate.

NCI-H1703 cells = assay: GLS Cell Proliferation Assay (NCI-H1703); assay type: cell-based; details: Homo sapiens, 120 h; NCI-H1703 cells, 5 days incubation, Sytox Green; read-out: Assay c) GLS Cell Proliferation Assay
Source text: as §1, with “The IC50 value was the concentration of test compound that inhibited 50% of biological activity.” left out
The ability of compounds to inhibit cell growth was measured using a 384 well plate NCI-H1703 cell proliferation assay. […] DMSO concentration was maintained at 0.3% by back filling with DMSO solution. Plates were incubated for 5 days at 37° C., 5% CO2, Sytox Green and Saponin added to final concentration of 2 μM and 0.25% respectively and incubated for 6 h prior to analysis. […] IC50 values were calculated by curve fitting to max inhibition of day zero growth using GeneData software analysis.

Chain of GLS1 (O94925 63-669): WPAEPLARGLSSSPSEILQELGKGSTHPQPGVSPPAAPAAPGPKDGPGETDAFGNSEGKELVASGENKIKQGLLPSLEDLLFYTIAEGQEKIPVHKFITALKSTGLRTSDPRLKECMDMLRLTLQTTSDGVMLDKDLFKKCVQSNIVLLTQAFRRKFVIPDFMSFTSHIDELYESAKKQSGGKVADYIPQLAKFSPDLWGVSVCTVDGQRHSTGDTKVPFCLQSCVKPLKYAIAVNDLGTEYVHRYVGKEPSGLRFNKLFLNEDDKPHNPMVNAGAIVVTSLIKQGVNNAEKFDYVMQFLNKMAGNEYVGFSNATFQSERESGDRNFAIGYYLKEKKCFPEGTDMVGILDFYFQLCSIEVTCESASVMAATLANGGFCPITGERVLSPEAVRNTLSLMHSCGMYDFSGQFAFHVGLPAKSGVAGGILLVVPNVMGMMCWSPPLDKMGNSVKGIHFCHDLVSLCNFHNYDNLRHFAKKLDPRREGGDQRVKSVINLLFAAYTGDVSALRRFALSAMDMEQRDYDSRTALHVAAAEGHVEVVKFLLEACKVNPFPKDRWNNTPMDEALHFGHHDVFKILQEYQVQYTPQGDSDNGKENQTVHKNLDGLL

SMILES | IC50 (GLS1) [nM] | IC50 [1] [nM] | IC50 (NCI-H1703 cells) [nM]
COc1cccc([C@H](OC)C(=O)Nc2ccc(N3CC[C@@H](Nc4cccnn4)C3)nn2)c1 [Example 3, (2S)-2-Methoxy-2-(3-methoxyphenyl)-N-[6-[(3R)-3-(pyridazin-3-ylamino)pyrrolidin-1-yl]pyridazin-3-yl]acetamide] | 29.8 | 1 | 3
O=C(Cc1ccccc1OC(F)(F)F)Nc1ccc(N2CC[C@@H](Nc3cccnn3)C2)nn1 [Example 6, N-[6-[(3R)-3-(Pyridazin-3-ylamino)pyrrolidin-1-yl]pyridazin-3-yl]-2-[2-(trifluoromethoxy)phenyl]acetamide] | 25.2 | 1 | 12
COc1ccccc1CC(=O)Nc1ccc(N2CC[C@@H](Nc3cccnn3)C2)nn1 [Example 4, 2-(2-Methoxyphenyl)-N-[6-[(3R)-3-(pyridazin-3-ylamino)pyrrolidin-1-yl]pyridazin-3-yl]acetamide] | 30.9 | 7 | 43
CO[C@H](C(=O)Nc1ccc(N2CC[C@@H](Nc3cccnn3)C2)nn1)c1cccc(OC(F)F)c1 [Example 1, (2S)-2-[3-(Difluoromethoxy)phenyl]-2-methoxy-N-[6-[(3R)-3-(pyridazin-3-ylamino)pyrrolidin-1-yl]pyridazin-3-yl]acetamide] | 24.7 | 1 | 9

The remaining compounds from weak to strong by IC50 (GLS1), led by results:

IC50 (GLS1) [nM] | IC50 [1] [nM] | SMILES | IC50 (NCI-H1703 cells) [nM]
95.7 | 1 | CO[C@H](C(=O)Nc1ccc(N2CC[C@@H](Nc3cccnn3)C2)nn1)c1cccc(OC(F)(F)F)c1 [Example 2, (2S)-2-[3-(Trifluoromethoxy)phenyl]-2-methoxy-N-[6-[(3R)-3-(pyridazin-3-ylamino)pyrrolidin-1-yl]pyridazin-3-yl]acetamide] | 11
30.6 | 1 | O=C(Cc1ccccc1C(F)(F)F)Nc1ccc(N2CC[C@@H](Nc3cccnn3)C2)nn1 [Example 5, N-[6-[(3R)-3-(Pyridazin-3-ylamino)pyrrolidin-1-yl]pyridazin-3-yl]-2-[2-(trifluoromethyl)phenyl]acetamide] | 3

— patent US10196382B2, “bis-Pyridazine compounds and their use in treating cancer” (AstraZeneca AB, priority 2015, dated 2019)
